Results as given in PubChem BioAssay (NCI).
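Test compounds were applied to cells in 96-well plates for 48 hours at 5 doses. Abbreviation: GI50, concentration required for 50% inhibition of growth. The concentration for full growth arrest is given as TGI.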

Key:
Assay in all cases: NCI-60 cell line screen, 48 h
HL-60(TB) leukemia = system: HL-60(TB) leukemia
T-47D breast = system: T-47D breast
KM12 colon = system: KM12 colon
UACC-62 melanoma = system: UACC-62 melanoma
SNB-19 CNS = system: SNB-19 CNS
ACHN renal = system: ACHN renal
IGROV1 ovarian = system: IGROV1 ovarian
MDA-MB-231 breast = system: MDA-MB-231 breast
TK-10 renal = system: TK-10 renal
OVCAR-5 ovarian = system: OVCAR-5 ovarian
UO-31 renal = system: UO-31 renal
HS 578T breast = system: HS 578T breast
SNB-75 CNS = system: SNB-75 CNS
MALME-3M melanoma = system: MALME-3M melanoma
UACC-257 melanoma = system: UACC-257 melanoma
SK-OV-3 ovarian = system: SK-OV-3 ovarian
RPMI-8226 leukemia = system: RPMI-8226 leukemia
HOP-62 NSCLC = system: HOP-62 NSCLC
MDA-MB-435 = system: MDA-MB-435
HCT-116 colon = system: HCT-116 colon
LOX IMVI melanoma = system: LOX IMVI melanoma
HCT-15 colon = system: HCT-15 colon
RXF 393 renal = system: RXF 393 renal
MOLT-4 leukemia = system: MOLT-4 leukemia
COLO 205 colon = system: COLO 205 colon
HOP-92 NSCLC = system: HOP-92 NSCLC
SN12C renal = system: SN12C renal
EKVX NSCLC = system: EKVX NSCLC
SK-MEL-5 melanoma = system: SK-MEL-5 melanoma
NCI-H226 lung = system: NCI-H226 lung
SW-620 colon = system: SW-620 colon
A549 NSCLC = system: A549 NSCLC
NCI-H522 lung = system: NCI-H522 lung
SF-268 CNS = system: SF-268 CNS
U251 CNS = system: U251 CNS
A498 renal = system: A498 renal
786-0 renal = system: 786-0 renal
M14 melanoma = system: M14 melanoma
MCF7 breast = system: MCF7 breast
BT-549 breast = system: BT-549 breast
NCI-H23 lung = system: NCI-H23 lung
OVCAR-4 ovarian = system: OVCAR-4 ovarian
SK-MEL-28 melanoma = system: SK-MEL-28 melanoma
OVCAR-8 ovarian = system: OVCAR-8 ovarian
HCC-2998 colon = system: HCC-2998 colon
CAKI-1 renal = system: CAKI-1 renal
SF-295 CNS = system: SF-295 CNS
K-562 leukemia = system: K-562 leukemia
OVCAR-3 ovarian = system: OVCAR-3 ovarian
NCI-H460 lung = system: NCI-H460 lung
DU-145 prostate = system: DU-145 prostate
SF-539 CNS = system: SF-539 CNS
HT29 colon = system: HT29 colon
PC-3 prostate = system: PC-3 prostate
SK-MEL-2 melanoma = system: SK-MEL-2 melanoma
CCRF-CEM leukemia = system: CCRF-CEM leukemia
NCI/ADR-RES ovarian = system: NCI/ADR-RES ovarian
SR leukemia = system: SR leukemia

For `Cc1ccc(-c2nc3nc(-c4ccc(Br)cc4)nc(N4CCCNCC4)c3o2)cc1`, the GI50 (HL-60(TB) leukemia) was 1.99 µM, the TGI (HL-60(TB) leukemia) was 4.07 µM and the GI50 (T-47D breast) was 3.06 µM. It also gave a TGI (T-47D breast) of 13.9 µM, a GI50 (KM12 colon) of 1.93 µM and a TGI (KM12 colon) of 3.82 µM. The GI50 (UACC-62 melanoma) was 17 µM, the TGI (UACC-62 melanoma) was 31.9 µM and the GI50 (SNB-19 CNS) was 14.1 µM. It also gave a TGI (SNB-19 CNS) of 27.6 µM, a GI50 (ACHN renal) of 1.91 µM and a TGI (ACHN renal) of 3.59 µM. The GI50 (IGROV1 ovarian) was 1.84 µM, the TGI (IGROV1 ovarian) was 3.61 µM and the GI50 (MDA-MB-231 breast) was 1.93 µM. The TGI (MDA-MB-231 breast) was 4.05 µM, the GI50 (TK-10 renal) was 20 µM and the TGI (TK-10 renal) was 34.8 µM. For the same compound, the GI50 (OVCAR-5 ovarian) was 16.3 µM, the TGI (OVCAR-5 ovarian) was 30 µM and the GI50 (UO-31 renal) was 2.12 µM. The TGI (UO-31 renal) was 7.04 µM, the GI50 (HS 578T breast) was 17.2 µM and the TGI (HS 578T breast) was 37.1 µM. The GI50 (SNB-75 CNS) was 10.5 µM, the TGI (SNB-75 CNS) was 22.4 µM and the GI50 (MALME-3M melanoma) was 15.4 µM. The TGI (MALME-3M melanoma) was 30.1 µM, the GI50 (UACC-257 melanoma) was 18.2 µM and the TGI (UACC-257 melanoma) was 39.7 µM. It also gave a GI50 (SK-OV-3 ovarian) of 17.5 µM, a TGI (SK-OV-3 ovarian) of 33.4 µM and a GI50 (RPMI-8226 leukemia) of 2.58 µM. For the same compound, the TGI (RPMI-8226 leukemia) was 6.63 µM, the GI50 (HOP-62 NSCLC) was 15.8 µM and the TGI (HOP-62 NSCLC) was 35.1 µM. It also gave a GI50 (MDA-MB-435) of 1.88 µM, a TGI (MDA-MB-435) of 3.74 µM and a GI50 (HCT-116 colon) of 1.82 µM. For the same compound, the TGI (HCT-116 colon) was 3.36 µM, the GI50 (LOX IMVI melanoma) was 1.76 µM and the TGI (LOX IMVI melanoma) was 3.34 µM. For the same compound, the GI50 (HCT-15 colon) was 1.72 µM, the TGI (HCT-15 colon) was 3.25 µM and the GI50 (RXF 393 renal) was 13.7 µM. It also gave a TGI (RXF 393 renal) of 27.5 µM, a GI50 (MOLT-4 leukemia) of 2.08 µM and a TGI (MOLT-4 leukemia) of 4.14 µM. It also gave a GI50 (COLO 205 colon) of 5.56 µM, a TGI (COLO 205 colon) of 20.2 µM and a GI50 (HOP-92 NSCLC) of 12.7 µM. For the same compound, the TGI (HOP-92 NSCLC) was 29.5 µM, the GI50 (SN12C renal) was 10.5 µM and the TGI (SN12C renal) was 23.7 µM. The GI50 (EKVX NSCLC) was 13.8 µM, the TGI (EKVX NSCLC) was 28.4 µM and the GI50 (SK-MEL-5 melanoma) was 16.7 µM. For the same compound, the TGI (SK-MEL-5 melanoma) was 31.6 µM, the GI50 (NCI-H226 lung) was 17 µM and the TGI (NCI-H226 lung) was 38.9 µM. It also gave a GI50 (SW-620 colon) of 1.84 µM, a TGI (SW-620 colon) of 3.57 µM and a GI50 (A549 NSCLC) of 1.96 µM. The TGI (A549 NSCLC) was 4.04 µM, the GI50 (NCI-H522 lung) was 1.86 µM and the TGI (NCI-H522 lung) was 4.5 µM. The GI50 (SF-268 CNS) was 3.63 µM, the TGI (SF-268 CNS) was 15.2 µM and the GI50 (U251 CNS) was 1.77 µM. For the same compound, the TGI (U251 CNS) was 3.45 µM, the GI50 (A498 renal) was 13.9 µM and the TGI (A498 renal) was 27.5 µM. For the same compound, the GI50 (786-0 renal) was 3.95 µM, the TGI (786-0 renal) was 16 µM and the GI50 (M14 melanoma) was 4.64 µM. It also gave a TGI (M14 melanoma) of 18.1 µM, a GI50 (MCF7 breast) of 1.78 µM and a TGI (MCF7 breast) of 3.51 µM. It also gave a GI50 (BT-549 breast) of 16 µM, a TGI (BT-549 breast) of 34.6 µM and a GI50 (NCI-H23 lung) of 17.1 µM. The TGI (NCI-H23 lung) was 34.9 µM, the GI50 (OVCAR-4 ovarian) was 7.2 µM and the TGI (OVCAR-4 ovarian) was 21 µM. For the same compound, the GI50 (SK-MEL-28 melanoma) was 17.4 µM, the TGI (SK-MEL-28 melanoma) was 31.8 µM and the GI50 (OVCAR-8 ovarian) was 2.28 µM. The TGI (OVCAR-8 ovarian) was 5.28 µM, the GI50 (HCC-2998 colon) was 15.4 µM and the TGI (HCC-2998 colon) was 30.2 µM. It also gave a GI50 (CAKI-1 renal) of 1.58 µM, a TGI (CAKI-1 renal) of 2.92 µM and a GI50 (SF-295 CNS) of 17.9 µM. The TGI (SF-295 CNS) was 33 µM, the GI50 (K-562 leukemia) was 2.31 µM and the TGI (K-562 leukemia) was 4.98 µM. The GI50 (OVCAR-3 ovarian) was 1.84 µM, the TGI (OVCAR-3 ovarian) was 3.36 µM and the GI50 (NCI-H460 lung) was 1.9 µM. It also gave a TGI (NCI-H460 lung) of 3.61 µM, a GI50 (DU-145 prostate) of 1.92 µM and a TGI (DU-145 prostate) of 3.55 µM. For the same compound, the GI50 (SF-539 CNS) was 3.27 µM, the TGI (SF-539 CNS) was 11.4 µM and the GI50 (HT29 colon) was 1.86 µM. For the same compound, the TGI (HT29 colon) was 3.54 µM, the GI50 (PC-3 prostate) was 2.48 µM and the TGI (PC-3 prostate) was 7.52 µM. It also gave a GI50 (SK-MEL-2 melanoma) of 18.5 µM, a TGI (SK-MEL-2 melanoma) of 36.3 µM and a GI50 (CCRF-CEM leukemia) of 2.35 µM. For the same compound, the TGI (CCRF-CEM leukemia) was 5.57 µM, the GI50 (NCI/ADR-RES ovarian) was 2.2 µM and the TGI (NCI/ADR-RES ovarian) was 4.58 µM. For the same compound, the GI50 (SR leukemia) was 1.78 µM and the TGI (SR leukemia) was 4.4 µM.
